Measurements reported in ChEMBL document CHEMBL3885881, “DrugMatrix”.
“And” between values parts separate entries of the source, which are not always exact repeats. Equal entries are not always repeated.

Species on record: Rattus norvegicus
Assay type: toxicity, organism-based, Sprague-Dawley
Conditions: in vivo, sc, 24 h, route mini-PUMP - SUBCUTANEOUS, vehicle 100 % SALINE; for ALANINE AMINOTRANSFERASE / ALBUMIN / ALKALINE PHOSPHATASE / ASPARTATE AMINOTRANSFERASE / BLOOD UREA NITROGEN / CARBON DIOXIDE / CHLORIDE / CHOLESTEROL / CREATINE PHOSPHOKINASE / CREATININE / GLUCOSE / LACTATE DEHYDROGENASE / PHOSPHORUS / POTASSIUM / SODIUM / TOTAL BILIRUBIN / TOTAL PROTEIN / URIC ACID / LIPASE: tissue Plasma
[1] = 0 mg/kg, vehicle control, tissue Blood, dose level Control, time 1 day
[2] = 0 mg/kg, vehicle control, dose level Control, time 1 day
[3] = 2 mg/kg, tissue Blood, dose level High, time 1 day
[4] = 2 mg/kg, dose level High, time 1 day
[5] = […], tissue Blood, dose 4.2 mg/Kg, dose level M1, time 1 day
[6] = […], dose 4.2 mg/Kg, dose level M1, time 1 day

Description: DrugMatrix - Regimen: Single

CC(C)NCC(O)c1ccc(O)c(O)c1 (stereo not drawn) [ISOPROTERENOL]
ABSOLUTE SEGMENTED NEUTROPHIL [1]: 1753.5 CELLS/uL
BASOPHIL [1]: 0.4% and 0%
EOSINOPHIL [1]: 0.3% and 0.17%
ERYTHROCYTE COUNT [1]: 6.25 x10E6/uL and 5.64 x10E6/uL
HEMATOCRIT [1]: 41.8% and 34.52%
HEMOGLOBIN [1]: 13.33 G/DL and 12.68 G/DL
LEUKOCYTE COUNT [1]: 11.55 x10E3/uL and 13 x10E3/uL
LYMPHOCYTE [1]: 72.6% and 84.5%
MEAN CORPUSCULAR HEMOGLOBIN [1]: 21.37 pg and 22.5 pg
MONOCYTE [1]: 2.4% and 1.83%
NEUTROPHIL [1]: 23.4% and 13.5%
NUCLEATED RED BLOOD CELLS [1]: 0.17 /100WBC
PLATELET COUNT [1]: 1265.33 x10E3/uL and 679.17 x10E3/uL
ALANINE AMINOTRANSFERASE [2]: 40.33 u/L and 42.67 u/L
ALBUMIN [2]: 3.63 G/DL and 3.77 G/DL
ALKALINE PHOSPHATASE [2]: 385.33 u/L and 291.17 u/L
ASPARTATE AMINOTRANSFERASE [2]: 79.33 u/L and 74.5 u/L
BLOOD UREA NITROGEN [2]: 13.33 mg/dL and 15.33 mg/dL
CARBON DIOXIDE [2]: 40.67 mmol/L and 30 mmol/L
CHLORIDE [2]: 103 MEQ/L and 100.83 MEQ/L
CHOLESTEROL [2]: 86.33 mg/dL and 65.33 mg/dL
CREATINE PHOSPHOKINASE [2]: 190.33 u/L
CREATININE [2]: 0.4 mg/dL and 0.15 mg/dL
GLUCOSE [2]: 165.67 mg/dL and 179.83 mg/dL
LACTATE DEHYDROGENASE [2]: 103.33 u/L and 162.67 u/L
PHOSPHORUS [2]: 11.7 mg/dL and 12.2 mg/dL
POTASSIUM [2]: 5.5 MEQ/L and 5.73 MEQ/L
SODIUM [2]: 145 MEQ/L and 144.7 MEQ/L
TOTAL BILIRUBIN [2]: 0.27 mg/dL and 0.15 mg/dL
TOTAL PROTEIN [2]: 5.87 G/DL
URIC ACID [2]: 1 mg/dL and 1.93 mg/dL
ABSOLUTE BASOPHIL [3]: 13.3 cells/µL
ABSOLUTE EOSINOPHIL [3]: 56.7 cells/µL
ABSOLUTE LYMPHOCYTE [3]: 4960 cells/µL
ABSOLUTE MONOCYTE [3]: 150 cells/µL
BASOPHIL [3]: 0.2%
EOSINOPHIL [3]: 0.83%
ERYTHROCYTE COUNT [3]: 5.65 x10E6/uL
HEMATOCRIT [3]: 36.77%
HEMOGLOBIN [3]: 11.77 G/DL
LEUKOCYTE COUNT [3]: 6.69 x10E3/uL
LYMPHOCYTE [3]: 74.03%
MEAN CORPUSCULAR HEMOGLOBIN [3]: 20.8 pg
MEAN CORPUSCULAR HEMOGLOBIN CONCENTRATION [3]: 31.97 G/DL
MEAN CORPUSCULAR VOLUME [3]: 65.1 fL
MONOCYTE [3]: 2.3%
NEUTROPHIL [3]: 22.1%
PLATELET COUNT [3]: 1167.67 x10E3/uL
ALANINE AMINOTRANSFERASE [4]: 33 u/L
ALBUMIN [4]: 3.6 G/DL
ALKALINE PHOSPHATASE [4]: 400 u/L
ASPARTATE AMINOTRANSFERASE [4]: 86.67 u/L
BLOOD UREA NITROGEN [4]: 14.67 mg/dL
CARBON DIOXIDE [4]: 33 mmol/L
CHLORIDE [4]: 106.67 MEQ/L
CHOLESTEROL [4]: 105 mg/dL
CREATINE PHOSPHOKINASE [4]: 281.33 u/L
CREATININE [4]: 0.6 mg/dL
GLUCOSE [4]: 99.33 mg/dL
LACTATE DEHYDROGENASE [4]: 93 u/L
LIPASE [4]: 24.67 u/L
PHOSPHORUS [4]: 11.33 mg/dL
POTASSIUM [4]: 5.6 MEQ/L
SODIUM [4]: 146 MEQ/L
TOTAL BILIRUBIN [4]: 0.2 mg/dL
TOTAL PROTEIN [4]: 5.87 G/DL
URIC ACID [4]: 0.93 mg/dL
ABSOLUTE EOSINOPHIL [5]: 59.67 CELLS/uL
ABSOLUTE LYMPHOCYTE [5]: 9880 CELLS/uL
ABSOLUTE MONOCYTE [5]: 232.33 CELLS/uL
ABSOLUTE SEGMENTED NEUTROPHIL [5]: 3561.33 CELLS/uL
BASOPHIL [5]: 0%
EOSINOPHIL [5]: 0.33%
ERYTHROCYTE COUNT [5]: 5.17 x10E6/uL
HEMATOCRIT [5]: 30.7%
HEMOGLOBIN [5]: 11.47 G/DL
LEUKOCYTE COUNT [5]: 13.73 x10E3/uL
LYMPHOCYTE [5]: 71.67%
MEAN CORPUSCULAR HEMOGLOBIN [5]: 22.2 pg
MEAN CORPUSCULAR HEMOGLOBIN CONCENTRATION [5]: 37.33 G/DL
MEAN CORPUSCULAR VOLUME [5]: 59.43 fL
MONOCYTE [5]: 1.67%
NEUTROPHIL [5]: 26.33%
NUCLEATED RED BLOOD CELLS [5]: 0 /100WBC
PLATELET COUNT [5]: 1159 x10E3/uL
ALANINE AMINOTRANSFERASE [6]: 55.33 u/L
ALBUMIN [6]: 3.73 G/DL
ALKALINE PHOSPHATASE [6]: 326.67 u/L
ASPARTATE AMINOTRANSFERASE [6]: 83 u/L
BLOOD UREA NITROGEN [6]: 14 mg/dL
CARBON DIOXIDE [6]: 28.67 mmol/L
CHLORIDE [6]: 100.67 MEQ/L
CHOLESTEROL [6]: 89.67 mg/dL
CREATININE [6]: 0.13 mg/dL
GLUCOSE [6]: 154 mg/dL
LACTATE DEHYDROGENASE [6]: 126.67 u/L
LIPASE [6]: 8.67 u/L
PHOSPHORUS [6]: 14.57 mg/dL
POTASSIUM [6]: 6.55 MEQ/L
SODIUM [6]: 144.37 MEQ/L
TOTAL BILIRUBIN [6]: 0.1 mg/dL
TOTAL PROTEIN [6]: 6.03 G/DL
URIC ACID [6]: 2.43 mg/dL
